Results on 15 compounds are retold here after US9605003B2, “Heterocyclic compounds and uses thereof” (Infinity Pharmaceuticals, Inc., priority 2011, dated 2017).

For experiment [1], the target named is T1, PI3Kα (Homo sapiens, UniProt P42336).
T1 construct: purchased Millipore Corporation 14-602-K
In words: PI3 Kinase HTRF assay, PI3Kα. It is filed as biochemical. The following applies: Between 1 μM and 10 μM; read-out: PI3K α IC50. The source says: (§1) A PI3-Kinase HTRF® assay kit (cat No. 33-016) purchased from Millipore Corporation was used to screen compounds provided herein. This assay used specific, high affinity binding of the GRP1 pleckstrin homology (PH) domain to PIP3, the product of a Class 1A or 1B PI3 Kinase acting on its physiological substrate PIP2. During the detection phase of the assay, a complex was generated between the GST-tagged PH domain and biotinylated short chain PIP3. The biotinylated PIP3 and the GST-tagged PH domain recruited fluorophores (Streptavidin-Allophycocyanin and Europium-labeled anti-GST respectively) to form the fluorescence resonance energy transfer (FRET) architecture, generating a stable time-resolved FRET signal. The FRET complex was disrupted in a competitive manner by non-biotinylated PIP3, a product formed in the PI3 Kinase assay.
(§2) PI3 Kinase α, β, γ and δ activity was assayed using the PI3 Kinase HTRF® assay kit (catalogue No. 33-016) purchased from Millipore Corporation. Purified recombinant PI3Kα (catalogue No. 14-602-K), PI3Kβ (catalogue No. 14-603-K), PI3Kγ (catalogue No. 14-558-K) and PI3Kδ (catalogue No. 14-604-K) were obtained from Millipore Corporation. Purified recombinant PI3K enzyme was used to catalyze the phosphorylation of phosphatidylinositol 4,5-bisphosphate (PIP2 at 10 μM) to phosphatidylinositol 3,4,5-trisphosphate (PIP3) in the presence of 10 μM ATP. The assay was carried out in 384-well format and detected using a Perkin Elmer EnVision Xcite Multilabel Reader. Emission ratios were converted into percent inhibitions and imported into GraphPad Prism software. The concentration necessary to achieve inhibition of enzyme activity by 50% (IC50) was calculated using concentrations ranging from 20 μM to 0.1 nM (12-point curve). IC50 values were determined using a nonlinear regression model available in GraphPad Prism 5.
(In general: In TR-FRET formats the signal depends on donor and acceptor labels being close together.)

Experiment [2] deals with Balb/c splenic B cells. In words: B cell activation and proliferation assay (Alamar Blue). It is filed as cell-based. The following applies: Mus musculus, Less than 100 nanoMolar. The procedure: The ability of one or more subject compounds to inhibit B cell activitation and proliferation is determined according to standard procedures known in the art. For example, an in vitro cellular proliferation assay is established that measures the metabolic activity of live cells. The assay is performed in a 96 well microtiter plate using Alamar Blue reduction. Balb/c splenic B cells are purified over a Ficoll-Paque™ PLUS gradient followed by magnetic cell separation using a MACS B cell Isolation Kit (Miletenyi). Cells are plated in 90 μl at 50,000 cells/well in B Cell Media (RPMI+10% FBS+Penn/Strep+50 μM bME+5 mM HEPES). A compound provided herein is diluted in B Cell Media and added in a 10 μl volume. Plates are incubated for 30 min at 37° C. and 5% CO2 (0.2% DMSO final concentration). A 50 μl B cell stimulation cocktail is then added containing either 10 μg/ml LPS or 5 μg/ml F(ab′)2 Donkey anti-mouse IgM plus 2 ng/ml recombinant mouse IL4 in B Cell Media. Plates are incubated for 72 hours at 37° C. and 5% CO2. A volume of 15 μL of Alamar Blue reagent is added to each well and plates are incubated for 5 hours at 37° C. and 5% CO2. Alamar Blue fluoresce is read at 560Ex/590Em, and IC50 or EC50 values are calculated using GraphPad Prism 5.
A general note: The colour change of resazurin is a common sign of viable cells or microbes.

The subject of experiment [3] is phospho-AKT in RAJI cells. In words: PI3Kδ selective cellular assay, phospho-AKT in anti-IgM stimulated RAJI cells. It is filed as cell-based. The following applies: Homo sapiens; RAJI cell model. The source says:
A compound's ability in selectively inhibiting PI3Kδ can be assessed using RAJI cells, i.e., B lymphocyte cells derived from lymphoma patients. Briefly, serum-starved RAJI cells are stimulated with anti-human IgM, thereby causing signaling through the B-cell receptors, as described in, for example, He et al., Leukemia Research (2009) 33: 798-802. B-cell receptor signaling is important for the activation, differentiation, and survival of B cells and certain B-cell derived cancers. Reduction of phospho-AKT is indicative of compounds that may inhibit B-cell proliferation and function in certain diseases. By monitoring the reduction of phospho-AKT in stimulated RAJI cells (using for example, phospho-AKT antibodies), a compound's potential efficacy in selectively inhibiting PI3Kδ can be assessed.
Certain compounds provided herein (e.g., Compounds 5, 38, 103, 105, 106, 107, 108, and 109) were tested in RAJI cell model using procedures as described above.

For experiment [4], the system named is phospho-AKT in RAW 264.7 cells. In words: PI3Kγ selective cellular assay, phospho-AKT in C5a stimulated RAW 264.7 cells. Particulars: Mus musculus, RAW264.7, RAW 264.7 cell model. It is filed as cell-based. The source says:
A compound's ability in selectively inhibiting PI3Kγ can be assessed using RAW264.7 macrophages. Briefly, serum-starved PAW264.7 cells are stimulated with a known GPCR agonist C5a. (See, e.g., Camps et al., Nature Medicine (2005) 11(9): 936-943). Cells can be treated with test compounds prior to, simultaneously with, or subsequent to the stimulation by C5a. RAW 264.7 cells respond to the complement component fragment C5a through activation of the C5a receptor, and the C5a receptor activates macrophages and induces cell migration. Test compounds' ability to inhibit C5a-mediated AKT phosphorylation is indicative of selective inhibition of PI3Kγ. Thus, by monitoring the reduction of phospho-AKT in stimulated RAW 264.7 cells (using for example, phospho-AKT antibodies), a compound's potential efficacy in selectively inhibiting PI3Kγ can be assessed.
Certain compounds provided herein (e.g., Compounds 5, 38, 103, 105, 106, 107, 108, and 109) were tested in RAW 264.7 cell model using procedures as described above.

Experiment [5] addresses T2, PI3Kβ (Homo sapiens, UniProt P42338).
T2 construct: purchased Millipore Corporation 14-603-K
In words: PI3 Kinase HTRF assay, PI3Kβ. It is filed as biochemical. The following applies: Between 1 μM and 10 μM; read-out: PI3K β IC50.
Excerpt: as §1, §2

In experiment [6] the target is T3, PI3Kγ (Homo sapiens, UniProt P48736).
T3 construct: purchased Millipore Corporation 14-558-K
T3 sequence (P48736 whole entry): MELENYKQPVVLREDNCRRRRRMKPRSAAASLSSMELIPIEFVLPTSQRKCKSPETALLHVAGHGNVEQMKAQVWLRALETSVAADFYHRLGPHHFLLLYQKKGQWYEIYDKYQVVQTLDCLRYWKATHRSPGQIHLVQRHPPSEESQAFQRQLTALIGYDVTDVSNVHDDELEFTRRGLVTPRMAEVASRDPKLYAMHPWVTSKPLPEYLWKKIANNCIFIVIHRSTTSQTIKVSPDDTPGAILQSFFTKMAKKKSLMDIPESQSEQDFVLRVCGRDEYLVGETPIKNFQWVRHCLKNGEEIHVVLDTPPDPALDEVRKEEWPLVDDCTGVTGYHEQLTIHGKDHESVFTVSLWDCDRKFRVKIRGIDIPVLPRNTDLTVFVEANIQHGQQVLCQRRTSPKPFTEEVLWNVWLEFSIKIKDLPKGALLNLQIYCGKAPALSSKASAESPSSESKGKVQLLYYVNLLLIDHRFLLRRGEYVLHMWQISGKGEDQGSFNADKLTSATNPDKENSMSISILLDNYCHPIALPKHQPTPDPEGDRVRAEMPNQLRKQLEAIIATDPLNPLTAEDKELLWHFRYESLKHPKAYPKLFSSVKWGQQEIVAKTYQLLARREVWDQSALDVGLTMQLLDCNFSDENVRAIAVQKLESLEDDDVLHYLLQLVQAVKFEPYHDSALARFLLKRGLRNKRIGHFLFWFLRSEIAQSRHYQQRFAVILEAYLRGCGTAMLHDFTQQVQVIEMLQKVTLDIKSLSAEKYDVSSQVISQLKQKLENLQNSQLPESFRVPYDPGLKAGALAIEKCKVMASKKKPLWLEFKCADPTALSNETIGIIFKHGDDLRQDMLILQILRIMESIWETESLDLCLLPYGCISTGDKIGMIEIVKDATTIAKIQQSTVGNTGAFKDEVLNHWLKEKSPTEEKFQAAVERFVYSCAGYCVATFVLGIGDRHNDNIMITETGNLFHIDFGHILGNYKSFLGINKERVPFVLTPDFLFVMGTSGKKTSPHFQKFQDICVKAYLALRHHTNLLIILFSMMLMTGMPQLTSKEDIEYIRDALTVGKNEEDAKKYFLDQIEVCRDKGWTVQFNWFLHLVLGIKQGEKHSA
The experiment is described as follows: PI3 Kinase HTRF assay, PI3Kγ. It is filed as biochemical. The following applies: Between 1 μM and 10 μM; read-out: PI3K γ IC50.
Excerpt: as §1, §2

[7] abbreviates: range between 100 nM and 1 μM (bounds carry own units).

T1 sequence (P42336 whole entry): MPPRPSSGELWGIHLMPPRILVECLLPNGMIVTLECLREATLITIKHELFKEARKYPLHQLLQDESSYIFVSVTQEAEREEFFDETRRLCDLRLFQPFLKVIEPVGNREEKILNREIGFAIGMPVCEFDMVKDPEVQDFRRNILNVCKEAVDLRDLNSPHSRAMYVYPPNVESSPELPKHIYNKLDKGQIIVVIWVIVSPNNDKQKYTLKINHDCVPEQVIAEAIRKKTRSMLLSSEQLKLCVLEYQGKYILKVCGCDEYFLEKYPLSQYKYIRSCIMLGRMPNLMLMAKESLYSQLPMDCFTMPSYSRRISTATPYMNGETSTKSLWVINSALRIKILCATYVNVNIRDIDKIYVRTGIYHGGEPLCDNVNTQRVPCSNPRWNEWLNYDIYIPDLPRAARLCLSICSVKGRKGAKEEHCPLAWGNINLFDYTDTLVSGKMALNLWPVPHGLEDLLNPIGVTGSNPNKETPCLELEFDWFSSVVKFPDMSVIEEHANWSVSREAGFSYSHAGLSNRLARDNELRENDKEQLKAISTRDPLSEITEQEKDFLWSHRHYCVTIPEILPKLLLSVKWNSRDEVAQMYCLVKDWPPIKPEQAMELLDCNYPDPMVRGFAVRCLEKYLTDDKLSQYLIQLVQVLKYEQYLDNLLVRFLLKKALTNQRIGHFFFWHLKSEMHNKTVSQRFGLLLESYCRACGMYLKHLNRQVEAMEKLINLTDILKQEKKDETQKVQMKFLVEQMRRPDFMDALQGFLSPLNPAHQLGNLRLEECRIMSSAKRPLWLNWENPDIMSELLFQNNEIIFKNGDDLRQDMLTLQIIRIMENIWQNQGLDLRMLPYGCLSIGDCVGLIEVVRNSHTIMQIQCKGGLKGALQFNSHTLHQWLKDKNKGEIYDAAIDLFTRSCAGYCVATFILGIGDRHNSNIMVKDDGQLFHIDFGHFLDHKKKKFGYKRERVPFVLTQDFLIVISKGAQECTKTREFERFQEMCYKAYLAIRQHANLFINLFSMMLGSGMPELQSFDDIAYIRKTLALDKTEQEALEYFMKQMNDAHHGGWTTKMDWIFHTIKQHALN
T1 sequence (P27986 whole entry partner): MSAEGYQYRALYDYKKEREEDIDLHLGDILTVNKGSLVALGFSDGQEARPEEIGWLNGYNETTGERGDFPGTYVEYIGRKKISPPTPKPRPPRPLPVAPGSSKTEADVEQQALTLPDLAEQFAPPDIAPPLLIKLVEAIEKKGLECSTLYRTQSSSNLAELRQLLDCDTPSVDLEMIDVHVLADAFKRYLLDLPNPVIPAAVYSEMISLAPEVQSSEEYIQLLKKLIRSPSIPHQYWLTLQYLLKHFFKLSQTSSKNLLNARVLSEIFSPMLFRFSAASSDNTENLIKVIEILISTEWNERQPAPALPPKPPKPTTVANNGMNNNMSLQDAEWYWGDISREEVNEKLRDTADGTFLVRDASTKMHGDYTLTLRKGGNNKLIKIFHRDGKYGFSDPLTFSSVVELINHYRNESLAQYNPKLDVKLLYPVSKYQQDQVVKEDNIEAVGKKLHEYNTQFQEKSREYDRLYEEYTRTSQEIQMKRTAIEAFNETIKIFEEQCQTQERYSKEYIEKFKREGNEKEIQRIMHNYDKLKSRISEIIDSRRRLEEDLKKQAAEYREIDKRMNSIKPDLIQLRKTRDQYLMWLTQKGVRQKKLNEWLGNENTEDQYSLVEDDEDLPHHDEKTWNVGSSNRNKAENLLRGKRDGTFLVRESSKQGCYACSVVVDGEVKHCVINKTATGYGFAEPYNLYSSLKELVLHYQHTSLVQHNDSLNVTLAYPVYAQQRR
T2 sequence (P42338 whole entry): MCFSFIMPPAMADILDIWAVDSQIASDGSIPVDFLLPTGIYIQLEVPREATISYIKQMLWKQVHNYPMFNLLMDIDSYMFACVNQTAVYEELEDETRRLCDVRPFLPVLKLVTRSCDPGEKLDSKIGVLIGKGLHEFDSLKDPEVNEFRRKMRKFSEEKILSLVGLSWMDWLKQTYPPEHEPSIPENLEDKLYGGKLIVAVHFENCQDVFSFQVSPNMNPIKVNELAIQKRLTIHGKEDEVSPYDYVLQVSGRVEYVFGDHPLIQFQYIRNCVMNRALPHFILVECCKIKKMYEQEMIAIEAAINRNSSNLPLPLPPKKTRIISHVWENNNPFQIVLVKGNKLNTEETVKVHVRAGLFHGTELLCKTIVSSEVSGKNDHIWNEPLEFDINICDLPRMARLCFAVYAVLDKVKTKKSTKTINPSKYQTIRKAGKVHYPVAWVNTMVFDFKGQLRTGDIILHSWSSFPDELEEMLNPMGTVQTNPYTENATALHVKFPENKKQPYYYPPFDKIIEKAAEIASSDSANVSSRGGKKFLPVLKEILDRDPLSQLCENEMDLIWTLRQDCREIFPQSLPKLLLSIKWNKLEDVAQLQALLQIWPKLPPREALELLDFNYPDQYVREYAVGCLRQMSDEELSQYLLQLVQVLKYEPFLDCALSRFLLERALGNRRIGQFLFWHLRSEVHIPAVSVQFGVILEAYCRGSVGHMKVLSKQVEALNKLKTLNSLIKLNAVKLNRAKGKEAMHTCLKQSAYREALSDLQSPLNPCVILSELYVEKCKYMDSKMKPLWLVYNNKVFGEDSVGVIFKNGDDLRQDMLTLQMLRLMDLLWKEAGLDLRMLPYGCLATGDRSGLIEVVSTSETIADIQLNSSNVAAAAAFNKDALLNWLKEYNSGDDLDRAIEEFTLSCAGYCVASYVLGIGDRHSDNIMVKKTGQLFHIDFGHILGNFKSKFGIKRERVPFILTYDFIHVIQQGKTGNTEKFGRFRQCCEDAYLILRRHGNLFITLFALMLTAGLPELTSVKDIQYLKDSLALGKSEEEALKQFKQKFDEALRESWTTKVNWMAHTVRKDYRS
T2 sequence (P27986 2-724 partner limits assumed): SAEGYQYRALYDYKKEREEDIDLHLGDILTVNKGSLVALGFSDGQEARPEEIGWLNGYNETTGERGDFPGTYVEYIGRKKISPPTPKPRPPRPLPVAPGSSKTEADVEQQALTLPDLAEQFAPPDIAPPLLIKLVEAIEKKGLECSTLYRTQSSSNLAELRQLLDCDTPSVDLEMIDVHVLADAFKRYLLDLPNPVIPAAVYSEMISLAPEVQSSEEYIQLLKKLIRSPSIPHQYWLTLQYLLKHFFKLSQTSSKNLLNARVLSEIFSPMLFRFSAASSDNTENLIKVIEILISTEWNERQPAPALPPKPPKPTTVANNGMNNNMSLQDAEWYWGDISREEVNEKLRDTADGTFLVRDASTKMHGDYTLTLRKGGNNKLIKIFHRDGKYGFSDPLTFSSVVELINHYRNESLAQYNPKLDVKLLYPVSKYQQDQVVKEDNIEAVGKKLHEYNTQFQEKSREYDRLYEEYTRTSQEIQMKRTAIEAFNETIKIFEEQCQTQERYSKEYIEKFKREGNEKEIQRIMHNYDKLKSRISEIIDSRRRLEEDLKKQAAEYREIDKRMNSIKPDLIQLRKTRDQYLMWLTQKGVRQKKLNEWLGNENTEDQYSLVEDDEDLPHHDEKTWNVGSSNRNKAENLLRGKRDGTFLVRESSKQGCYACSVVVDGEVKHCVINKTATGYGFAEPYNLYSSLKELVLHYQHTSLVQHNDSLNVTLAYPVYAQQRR

As usually defined, the IC50 is the point on the concentration scale where inhibition reaches its midpoint. Broadly, the EC50 is the concentration giving half of the maximal effect. A low value points to higher potency in that assay. `C[C@H](Nc1ncnc2scnc12)c1cc2cccc(Cl)c2c(=O)n1C` [Compound 81]: the IC50 in experiment [1] lay within 1000 to 10000 nM. Further, in experiment [2], the EC50 is < 100 nM.
For `Cc1ncc(-c2cccc3cc([C@H](C)Nc4ncnc5scnc45)n(-c4ccon4)c(=O)c23)cn1` [Compound 107], the IC50 in experiment [3] was < 100 nM; in experiment [4] (setting [7]), 100 to 1000 nM.
Turning to `C[C@H](Nc1ncnc2scnc12)c1cc2cccc(-c3cncc(F)c3)c2c(=O)n1-c1ccccc1` [Compound 21], the IC50 in experiment [1] is 1000 to 10000 nM. Also, the EC50 in experiment [2] is < 100 nM.
Turning to `Cc1ccc(-c2cccc3cc([C@H](C)Nc4ncnc5scnc45)n(-c4ccccc4)c(=O)c23)cn1` [Compound 6], the IC50 in experiment [1] and in experiment [5] was 1000 to 10000 nM throughout. In addition, the concentration for a half-maximal effect (EC50) in experiment [2] is < 100 nM.
Turning to `CC(C)n1c([C@H](C)Nc2ncnc3scnc23)cc2cccc(-c3ccnnc3)c2c1=O` [Compound 108], the half-maximal inhibitory concentration (IC50) in experiment [3] was < 100 nM; in experiment [4], 1000 to 10000 nM.
With `C[C@H](Nc1ncnc2scnc12)c1cc2cccc(-c3cnc(OCc4ccccc4)nc3)c2c(=O)n1-c1ccccc1` [Compound 53], the concentration for half-maximal inhibition (IC50) in experiment [1] and in experiment [5] was 1000 to 10000 nM in each case. Further, the concentration giving a half-maximal response (EC50) in experiment [2] was < 100 nM.
Take `C[C@H](Nc1ncnc2scnc12)c1cc2cccc(-c3cncc(N)c3)c2c(=O)n1-c1ccccc1` [Compound 109]: the IC50 in experiment [1] was 1000 to 10000 nM; in experiment [3], < 100 nM; in experiment [4] (setting [7]), 100 to 1000 nM.
Take `COc1ccc(-c2cccc3cc([C@H](C)Nc4ncnc5scnc45)n(-c4ccccc4)c(=O)c23)cc1` [Compound 44]: the 50% inhibitory concentration (IC50) in experiment [1] and in experiment [5] was 1000 to 10000 nM in each case. In addition, the concentration giving a half-maximal response (EC50) in experiment [2] was < 100 nM.
In the case of `C[C@H](Nc1ncnc2scc(-c3ccccc3)c12)c1cc2cccc(Cl)c2c(=O)n1-c1ccccc1` [Compound 98], the half-maximal inhibitory concentration (IC50) in experiment [6] was in the range of 1000 to 10000 nM.
For the compound `C[C@H](Nc1ncnc2scnc12)c1cc2cccc(-c3cnn(C)c3)c2c(=O)n1-c1cccc(F)c1` [Compound 10], the IC50 in experiment [1] and in experiment [5] was 1000 to 10000 nM in each case. For the same compound, in experiment [2], the EC50 was < 100 nM.
As for `C[C@H](Nc1ncnc2scnc12)c1cc2cccc(-c3ccnnc3)c2c(=O)n1-c1ccccc1` [Compound 92], the IC50 in experiment [1] was in the range of 1000 to 10000 nM. Moreover, the EC50 in experiment [2] is < 100 nM.
Consider `COc1ncc(-c2cccc3cc([C@H](C)Nc4ncnc5scnc45)n(-c4cccc(F)c4)c(=O)c23)cn1` [Compound 60], for which, in experiment [1], the IC50 fell in the range of 1000 to 10000 nM. The EC50 in experiment [2] is < 100 nM.
As to `COc1ncc(-c2cccc3cc([C@H](C)Nc4ncnc5scnc45)n(-c4ccccc4)c(=O)c23)cc1C` [Compound 56], the 50% inhibitory concentration (IC50) in experiment [1] and in experiment [5] was 1000 to 10000 nM throughout. For the same compound, the EC50 in experiment [2] is < 100 nM.
Turning to `CCCn1cc(-c2cccc3cc([C@H](C)Nc4ncnc5scnc45)n(-c4ccccc4)c(=O)c23)cn1` [Compound 29], the concentration for half-maximal inhibition (IC50) in experiment [1] and in experiment [5] was 1000 to 10000 nM each time.
`COc1cnccc1-c1cccc2cc([C@H](C)Nc3ncnc4scnc34)n(-c3ccccc3)c(=O)c12` [Compound 36]: the half-maximal inhibitory concentration (IC50) in experiment [1] and in experiment [5] was 1000 to 10000 nM in each case.
